Test results reported in the CheMixHub viscosity set.
± gives the uncertainty stated by the source.

Assay: xn = mol fraction of the nth substance listed

CC(C)c1ccccc1 + c1ccccc1
Settings | viscosity [mPa·s]
293.15 K, 101.33 kPa, x2 = 0.3728 | 0.721 ± 0.013
293.15 K, 101.33 kPa, x2 = 0.5889 | 0.693 ± 0.0096
293.15 K, 101.33 kPa, x2 = 0.8176 | 0.66 ± 0.0068
293.15 K, 101.33 kPa, x2 = 0.9057 | 0.653 ± 0.0062
303.15 K, 101.3 kPa, x2 = 0.1245 | 0.6683 ± 0.0056
303.15 K, 101.3 kPa, x2 = 0.2644 | 0.6483 ± 0.0055
303.15 K, 101.3 kPa, x2 = 0.4246 | 0.6265 ± 0.0054
303.15 K, 101.3 kPa, x2 = 0.5391 | 0.6111 ± 0.0053
303.15 K, 101.3 kPa, x2 = 0.5606 | 0.6069 ± 0.0052
303.15 K, 101.3 kPa, x2 = 0.6382 | 0.5972 ± 0.0052
303.15 K, 101.3 kPa, x2 = 0.6478 | 0.5958 ± 0.0052
303.15 K, 101.3 kPa, x2 = 0.7409 | 0.5819 ± 0.0051
303.15 K, 101.3 kPa, x2 = 0.831 | 0.5721 ± 0.005
303.15 K, 101.3 kPa, x2 = 0.919 | 0.5634 ± 0.0049
303.15 K, 101.33 kPa, x2 = 0.3728 | 0.63 ± 0.011
303.15 K, 101.33 kPa, x2 = 0.5889 | 0.607 ± 0.0084
303.15 K, 101.33 kPa, x2 = 0.8176 | 0.575 ± 0.006
303.15 K, 101.33 kPa, x2 = 0.9057 | 0.563 ± 0.0054
313.15 K, 101.33 kPa, x2 = 0.3728 | 0.56 ± 0.01
313.15 K, 101.33 kPa, x2 = 0.5889 | 0.537 ± 0.0075
313.15 K, 101.33 kPa, x2 = 0.8176 | 0.512 ± 0.0054
313.15 K, 101.33 kPa, x2 = 0.9057 | 0.496 ± 0.0048
323.15 K, 101.33 kPa, x2 = 0.3728 | 0.499 ± 0.0092
323.15 K, 101.33 kPa, x2 = 0.5889 | 0.479 ± 0.0068
323.15 K, 101.33 kPa, x2 = 0.8176 | 0.454 ± 0.0049
323.15 K, 101.33 kPa, x2 = 0.9057 | 0.441 ± 0.0044

CCCOC(=O)c1ccccc1 + CCCCCC
101 kPa
Settings | viscosity [mPa·s]
298.15 K, x2 = 0.0545 | 2.09 ± 0.066
298.15 K, x2 = 0.1249 | 1.794 ± 0.057
298.15 K, x2 = 0.1605 | 1.659 ± 0.053
298.15 K, x2 = 0.2369 | 1.409 ± 0.045
298.15 K, x2 = 0.2765 | 1.298 ± 0.041
298.15 K, x2 = 0.33 | 1.155 ± 0.037
298.15 K, x2 = 0.3772 | 1.043 ± 0.033
298.15 K, x2 = 0.4847 | 0.827 ± 0.026
298.15 K, x2 = 0.5259 | 0.756 ± 0.024
298.15 K, x2 = 0.5689 | 0.69 ± 0.022
298.15 K, x2 = 0.6152 | 0.627 ± 0.02
298.15 K, x2 = 0.6632 | 0.569 ± 0.018
298.15 K, x2 = 0.7031 | 0.525 ± 0.017
298.15 K, x2 = 0.7496 | 0.479 ± 0.015
298.15 K, x2 = 0.7954 | 0.448 ± 0.014
298.15 K, x2 = 0.8308 | 0.42 ± 0.014
298.15 K, x2 = 0.8752 | 0.399 ± 0.013
298.15 K, x2 = 0.9201 | 0.371 ± 0.012
298.15 K, x2 = 0.9574 | 0.351 ± 0.011
308.15 K, x2 = 0.0876 | 1.62 ± 0.052
308.15 K, x2 = 0.1454 | 1.451 ± 0.046
308.15 K, x2 = 0.1923 | 1.32 ± 0.042
308.15 K, x2 = 0.2499 | 1.174 ± 0.037
308.15 K, x2 = 0.3064 | 1.046 ± 0.033
308.15 K, x2 = 0.3543 | 0.95 ± 0.03
308.15 K, x2 = 0.4116 | 0.845 ± 0.027
308.15 K, x2 = 0.4488 | 0.785 ± 0.025
308.15 K, x2 = 0.5082 | 0.698 ± 0.022
308.15 K, x2 = 0.5509 | 0.643 ± 0.021
308.15 K, x2 = 0.5926 | 0.594 ± 0.019
308.15 K, x2 = 0.6346 | 0.55 ± 0.018
308.15 K, x2 = 0.6803 | 0.507 ± 0.016
308.15 K, x2 = 0.7241 | 0.468 ± 0.015
308.15 K, x2 = 0.7719 | 0.433 ± 0.014
308.15 K, x2 = 0.8096 | 0.406 ± 0.013
308.15 K, x2 = 0.857 | 0.376 ± 0.012
308.15 K, x2 = 0.8946 | 0.354 ± 0.011
308.15 K, x2 = 0.9406 | 0.334 ± 0.011
318.15 K, x2 = 0.0693 | 1.388 ± 0.044
318.15 K, x2 = 0.1096 | 1.288 ± 0.041
318.15 K, x2 = 0.1613 | 1.172 ± 0.037
318.15 K, x2 = 0.221 | 1.048 ± 0.033
318.15 K, x2 = 0.2711 | 0.954 ± 0.03
318.15 K, x2 = 0.3284 | 0.856 ± 0.027
318.15 K, x2 = 0.3767 | 0.781 ± 0.025
318.15 K, x2 = 0.432 | 0.705 ± 0.023
318.15 K, x2 = 0.4801 | 0.644 ± 0.021
318.15 K, x2 = 0.5314 | 0.586 ± 0.019
318.15 K, x2 = 0.5757 | 0.54 ± 0.017
318.15 K, x2 = 0.6264 | 0.494 ± 0.016
318.15 K, x2 = 0.6694 | 0.457 ± 0.015
318.15 K, x2 = 0.7292 | 0.411 ± 0.013
318.15 K, x2 = 0.76 | 0.391 ± 0.013
318.15 K, x2 = 0.8056 | 0.362 ± 0.012
318.15 K, x2 = 0.8466 | 0.34 ± 0.011
318.15 K, x2 = 0.892 | 0.32 ± 0.01
318.15 K, x2 = 0.9292 | 0.304 ± 0.01
